Experimental data published in patent US11000033B2, “Ketone or oxime compound, and herbicide” (NISSAN CHEMICAL CORPORATION, priority 2014, dated 2021).

Legend:
Assay type in all cases: in vivo
[1] = tested on: Avena fatua; assay: Test Example 4: herbicidal effect by soil treatment (symbol I); settings: application herbicide amount 320 g/ha
How it was run: (§1)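 Seeds were sown in sterilized diluvial soil, covered with about 1.5 cm of soil, and the soil surface was sprayed with a water-diluted emulsion of the compound at a predetermined rate. Plants grew in a greenhouse at 25° C. to 30° C.; effects were scored visually 3 weeks after application.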

[2] = tested on: wheat; assay: Test Example 4: effect on crop by soil treatment (symbol e); settings: application herbicide amount 320 g/ha
How it was run: (§2)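 Plants are raised in a greenhouse (25° C. to 30° C.) from spot-sown seed, which sits under about 1.5 cm of sterilized diluvial soil in a box shared with weed species.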

[3] = tested on: Veronica persica; assay: Test Example 5: herbicidal effect by foliage application, plastic box (symbol R); settings: 320 g/ha, 3 weeks after application
How it was run: (§3)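 Greenhouse foliar test: seedlings at 14 days, grown 25° C. to 30° C. in sterilized diluvial soil; compound applied as an aqueous dilution of an emulsion; response read 3 weeks after spraying.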

[4] = tested on: rapeseed; assay: Test Example 4: effect on crop by soil treatment (symbol g); settings: application herbicide amount 320 g/ha
How it was run: as §2

[5] = tested on: Galium spurium; assay: Test Example 4: herbicidal effect by soil treatment (symbol Q); settings: application herbicide amount 320 g/ha
How it was run: as §1

[6] = tested on: Digitaria ciliaris; assay: Test Example 5: herbicidal effect by foliage application, plastic box (symbol F); settings: 320 g/ha, 3 weeks after application
How it was run: as §3

[7] = tested on: rice plant; assay: Test Example 5: effect on crop by foliage application, plastic box (symbol b); settings: 320 g/ha, 3 weeks after application
How it was run: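 Soil: sterilized diluvial. Container: plastic box, 21 × 13 cm, 7 cm deep. Sowing: spot-like, ~1.5 cm cover. Growth: greenhouse, 25° C. to 30° C.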

[8] = tested on: Monochoria vaginalis; assay: Test Example 2: herbicidal activity, application during weed generation in submerged conditions (symbol C); settings: Table 23; application herbicide amount 320 g/ha; grade 0-5 by criteria of Test Example 1
How it was run: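 Visual herbicidal ratings, taken three weeks after dosing, reflect post-emergence water-surface application to seedlings at one to two leaves. Conditions: co-sown weeds in alluvial soil flooded to 4 cm, greenhouse held at 25° C. to 30° C.; compound given as water-diluted emulsion at a fixed herbicide amount.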

[9] = tested on: Apera spica-venti; assay: Test Example 4: herbicidal effect by soil treatment (symbol L); settings: application herbicide amount 320 g/ha
How it was run: as §1

[10] = tested on: Veronica persica; assay: Test Example 4: herbicidal effect by soil treatment (symbol R); settings: application herbicide amount 320 g/ha
How it was run: as §1

[11] = tested on: Stellaria media; assay: Test Example 4: herbicidal effect by soil treatment (symbol P); settings: application herbicide amount 320 g/ha
How it was run: as §1

[12] = tested on: Galium spurium; assay: Test Example 5: herbicidal effect by foliage application, plastic box (symbol Q); settings: 320 g/ha, 3 weeks after application
How it was run: as §3

[13] = tested on: Echinochloa crus-galli var. crus-galli; assay: Test Example 3: herbicidal effect by foliage application, Wagner pot (symbol H); settings: application herbicide amount 320 g/ha
How it was run: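 Herbicidal activity was rated three weeks after a foliar spray of diluted emulsion concentrate, applied at a predetermined dose to plants grown for 14 days from seed in waterlogged alluvial soil within a 25–30 °C greenhouse.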

| Compound | I: Avena fatua, herbicidal effect grade [1] | e: wheat, effect on crop grade [2] | R: Veronica persica, herbicidal effect grade [3] | g: rapeseed, effect on crop grade [4] | Q: Galium spurium, herbicidal effect grade [5] | F: Digitaria ciliaris, herbicidal effect grade [6] | b: directly sowed rice plant, effect on crop grade [7] | Herbicidal effect grade, C: Monochoria vaginalis [8] | L: Apera spica-venti, herbicidal effect grade [9] | R: Veronica persica, herbicidal effect grade [10] | P: Stellaria media, herbicidal effect grade [11] | Q: Galium spurium, herbicidal effect grade [12] | herbicidal effect on H (Echinochloa crus-galli var. crus-galli), grade 0-5 [13] |
| --- | --- | --- | --- | --- | --- | --- | --- | --- | --- | --- | --- | --- | --- |
| CCOC(=O)C(C(=O)c1ccccn1)C1CC(O)=C(c2c(C)cc(C)cc2C)C1=O (stereo not shown) [2-013] | 0 (Herbicidal ratio of 5% or lower (almost no effect)) | 0 (Herbicidal ratio of 5% or lower (almost no effect)) | 2 (Herbicidal ratio of 20% or higher and lower than 40%) | 0 (Herbicidal ratio of 5% or lower (almost no effect)) | 0 (Herbicidal ratio of 5% or lower (almost no effect)) | 4 (Herbicidal ratio of 70% or higher and lower than 90%) | 5 (Herbicidal ratio of 90% or more (almost completely withered)) | 0 (Herbicidal ratio of 5% or lower (almost no effect)) | 0 (Herbicidal ratio of 5% or lower (almost no effect)) | 0 (Herbicidal ratio of 5% or lower (almost no effect)) | 0 (Herbicidal ratio of 5% or lower (almost no effect)) | 1 (Herbicidal ratio of 5% or higher and lower than 20%) | 0 (Herbicidal ratio of 5% or lower (almost no effect)) |
| Cc1cc(C)c(C2=C(O)CC(CC(=O)C3CCCC3)C2=O)c(C)c1 (stereo not shown) [2-028] | 0 (Herbicidal ratio of 5% or lower (almost no effect)) | 0 (Herbicidal ratio of 5% or lower (almost no effect)) | 0 (Herbicidal ratio of 5% or lower (almost no effect)) | 0 (Herbicidal ratio of 5% or lower (almost no effect)) | 0 (Herbicidal ratio of 5% or lower (almost no effect)) | 2 (Herbicidal ratio of 20% or higher and lower than 40%) | 5 (Herbicidal ratio of 90% or more (almost completely withered)) | 0 (Herbicidal ratio of 5% or lower (almost no effect)) | 2 (Herbicidal ratio of 20% or higher and lower than 40%) | 0 (Herbicidal ratio of 5% or lower (almost no effect)) | 0 (Herbicidal ratio of 5% or lower (almost no effect)) | 0 (Herbicidal ratio of 5% or lower (almost no effect)) | 5 (Herbicidal ratio of 90% or more (almost completely withered)) |
| Cc1cc(C)c(C2=C(O)CC(CC(=O)C3CCCCC3)C2=O)c(C)c1 (stereo not shown) [2-030] | 0 (Herbicidal ratio of 5% or lower (almost no effect)) | 0 (Herbicidal ratio of 5% or lower (almost no effect)) | 1 (Herbicidal ratio of 5% or higher and lower than 20%) | 0 (Herbicidal ratio of 5% or lower (almost no effect)) | 0 (Herbicidal ratio of 5% or lower (almost no effect)) | 4 (Herbicidal ratio of 70% or higher and lower than 90%) | 5 (Herbicidal ratio of 90% or more (almost completely withered)) | 0 (Herbicidal ratio of 5% or lower (almost no effect)) | 4 (Herbicidal ratio of 70% or higher and lower than 90%) | 0 (Herbicidal ratio of 5% or lower (almost no effect)) | 0 (Herbicidal ratio of 5% or lower (almost no effect)) | 0 (Herbicidal ratio of 5% or lower (almost no effect)) | 4 (Herbicidal ratio of 70% or higher and lower than 90%) |
| CON=C(C)CC1CC(O)=C(c2c(C)cc(OCC(F)(F)F)cc2C)C1=O (stereo not shown) [6-049] | 5 (Herbicidal ratio of 90% or more (almost completely withered)) | 5 (Herbicidal ratio of 90% or more (almost completely withered)) | 5 (Herbicidal ratio of 90% or more (almost completely withered)) | 5 (Herbicidal ratio of 90% or more (almost completely withered)) | 3 (Herbicidal ratio of 40% or higher and lower than 70%) | 5 (Herbicidal ratio of 90% or more (almost completely withered)) | 5 (Herbicidal ratio of 90% or more (almost completely withered)) | 3 (Herbicidal ratio of 40% or higher and lower than 70%) | 5 (Herbicidal ratio of 90% or more (almost completely withered)) | 4 (Herbicidal ratio of 70% or higher and lower than 90%) | 4 (Herbicidal ratio of 70% or higher and lower than 90%) | 5 (Herbicidal ratio of 90% or more (almost completely withered)) | 5 (Herbicidal ratio of 90% or more (almost completely withered)) |
